Source: patent publication EP4663632A1, “COMPOUNDS USEFUL FOR THE MODULATION OF THE ACTIVITY OF STING” (Sulis Therapeutics ApS, priority 2024, dated 2025)
Several values for one entry are separate records, joined by “and”; a condition that tells them apart may be missing. Equal values may be shown once.

Tests used:
[1] = molecular target: T1, C-terminal domain (CTD) of human STING (Homo sapiens, UniProt Q86WV6); assay: STING binding TR-FRET assay; design: purchased CisBio 64BDSTGPEG; details: Human STING WT Binding Kit (CisBio)
Method: The affinity of molecules to the C-terminal domain (CTD) of human STING was determined using a commercial Human STING WT Binding Kit (CisBio, cat.# 64BDSTGPEG). In this time-resolved FRET assay, a recombinant human STING protein construct with a His-tag was employed. When bound to STING, a D2-labeled active site probe accepts the 620 nm emission from Anti-HIS-Tb-STING and an increase in fluorescence is measured at 665 nm. Molecules that compete for the probe binding site will result in a low 665 nm signal. The assay was run in CisBio low-volume white 96-well plates (catalog# 66PL96005) containing 5 µL compounds in Diluent Buffer (supplied with the CisBio kit). A solution of 1xSTING, 1x Anti-HIS-Tb and 1X D2-probe in TB detection buffer (kit supplied) was added to the plate. Plates were centrifuged for 2 min at 500 rpm, incubated for 60 min at room temperature in the dark, and then fluorescence emission at 665 nm following 330 nm xenon flash excitation on an BioTek synergy H1 multimode reader (Agilent) was measured. The plC50 values were determined using a standard four parameter curve fit in GraphPad Prism.
Target sequence in this assay (Q86WV6 135-379 limits assumed): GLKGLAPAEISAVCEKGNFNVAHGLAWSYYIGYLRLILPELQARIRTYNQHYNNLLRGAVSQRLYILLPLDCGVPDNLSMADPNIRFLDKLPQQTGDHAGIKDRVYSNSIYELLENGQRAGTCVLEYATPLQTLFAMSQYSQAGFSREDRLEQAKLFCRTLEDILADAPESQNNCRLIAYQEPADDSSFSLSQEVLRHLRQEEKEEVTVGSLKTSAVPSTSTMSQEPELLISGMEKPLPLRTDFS

[2] = molecular target: T1, C-terminal domain (CTD) of human STING; assay: STING binding FP assay I; design: recombinant human STING protein (155-379); details: 35 nM STING, 4 nM Probe 1
Method: The interaction between molecules and the C-terminal domain (CTD) of human STING was evaluated using a competition binding assay. In this assay, recombinant human STING protein (155-379) and a STING binding fluorescent probe were employed. Upon binding of the probe to STING, the rotation of the fluorescent probe is slowed due to the larger molecular size of the protein-bound complex. As a result, emitted light retains its plane of polarization, leading to an increase in fluorescence polarization. Molecules competing for the probe binding site displace the probe, which leads to rapid randomization of the polarization plane of the emitted light and a subsequent decrease in measured fluorescence polarization signal. Change in polarization was measured, allowing a comparative evaluation of the binding affinities of different compounds to the target protein.
The assay was performed in 96-well plates (ThermoFisher, cat.# 237108) containing 100µl : 10 µL test compound in 10% DMSO and buffer A (150 mM NaCl, 50 mM HEPES pH 7.5, 1 mM DTT) + 90 µL prepared master mix solution of: 4 nM fluorescein-labelled STING ligand (Probe 1; synthesis described above) in buffer A + 0.055% Tween-20 (v/v) and 35 nM STING in buffer A. Post mixing, plates were agitated at 600rpm and incubated for 20 min at room temperature. Subsequent measurements of the fluorescence polarization signal were made on a BioTek Synergy-H1 plate reader, using a polarization filter; Exc: 485/20 nm, Em: […]) with a gain-setting of 75. IC50 values were determined using a standard non-linear regression four-parameter curve fit in Graphpad Prism.
Target sequence in this assay (Q86WV6 155-379): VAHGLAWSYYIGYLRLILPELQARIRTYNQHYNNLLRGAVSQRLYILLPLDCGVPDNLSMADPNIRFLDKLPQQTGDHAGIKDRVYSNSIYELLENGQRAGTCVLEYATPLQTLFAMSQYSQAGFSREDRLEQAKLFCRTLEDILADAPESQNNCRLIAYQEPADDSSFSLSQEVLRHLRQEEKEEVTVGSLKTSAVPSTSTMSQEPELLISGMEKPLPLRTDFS

STING [3] = molecular target: T2, STING (Homo sapiens, UniProt Q86WV6); assay: Western Blot analysis of inhibition of STING activation in HFF-1 cells; format: cell-based; design: host or cells: HFF-1 human foreskin fibroblasts; details: agonist only (-): 300 nM diABZI c3 or 8 µg/mL cGAMP
Method: To assess whether S1 STING ligands inhibit STING activation, primary human skin fibroblasts (Figure 5) or HFF-1 cells (Figure 6) were treated with various compounds which comprise only an S1 ligand domain and a Linker domain before undergoing Western Blot analysis as described below.
The cells were lysed and analysed on WB. […] The WB membrane was probed for p-STING, STING, p-IRF3, p-TBK1, and Vinculin.

STING [4] = molecular target: T2, STING; assay: Western Blot analysis of STING phosphorylation in human fibroblast cells (STING agonism); format: cell-based; design: host or cells: HFF-1 human foreskin fibroblasts; details: control, 300nM diABZI C3 alone
Method: Human fibroblast were treated with a titration of E22, E9, E14 and E16 (7.2µM-3.6nM) for 24h prior to cell lysis and subsequently total STING, pSTING and Vinculin were assessed by western blot using rabbit anti-STING (1:1000), anti-pSTING (1:1000), anti-Vinculin (1:1000) and 2nd anti-rabbit-HRP (1:10.000) or anti-mouse-HRP (1:7500). Proteins were visualized using ImageQuant800. Control cells included untreated cells and cells treated with 300nM diABZI C3.

STING [5] = molecular target: T2, STING; assay: Inhibition of STING-agonist-induced IFN-β and CXCL10 release by Compounds A9 and A11; format: cell-based; design: host or cells: HFF-1 human foreskin fibroblasts
Method: HFF-1 cells were also assessed for inhibition of STING-agonist-induced IFN-β and CXCL10 release in cells treated with Compounds A9 and A11. […] In contrast, pre-treating cells for 1 to 2 hours prior to diABZI c3, simultaneous treatment with A9 and diABZI c3, or pre-treating cells for 15 minutes with diABZI c3 followed by A9 treatment led to a decrease in the IFN media concentration to ~100 U/mL. […] In contrast, cells pre-treated for 1 to 2 hours prior to diABZI c3, simultaneous treatment with A9 and diABZI c3, or pre-treating cells for 15 minutes with diABZI c3 followed by A9 treatment led to a decrease in the CXCL10 media concentration to […] (Figure 9B, unfiled bars).
In contrast, pre-treating cells for 1 to 2 hours prior to diABZI c3, simultaneous treatment with A11 and diABZI c3, or pre-treating cells for 15 minutes with diABZI c3 followed by A11 treatment led to a decrease in the IFN media concentration to -10 - 20 U/mL. […] In contrast, cells pre-treated for 1 to 2 hours prior to diABZI c3, simultaneous treatment with A11 and diABZI c3, or pre-treating cells for 15 minutes with diABZI c3 followed by A11 treatment led to a decrease in the CXCL10 media concentration to -10 - 20 pg/mL (Figure 9B; filled bars).

STING [6] = molecular target: T3, STING (Mus musculus, UniProt Q3TBT3); assay: IFN-β secretion from mouse RAW264.7 cells treated with diABZI; format: cell-based; design: endogenous in cells; host or cells: RAW264.7 mouse cells; details: 1.8 µM diABZI c3 only
T3 sequence (Q3TBT3 1-378): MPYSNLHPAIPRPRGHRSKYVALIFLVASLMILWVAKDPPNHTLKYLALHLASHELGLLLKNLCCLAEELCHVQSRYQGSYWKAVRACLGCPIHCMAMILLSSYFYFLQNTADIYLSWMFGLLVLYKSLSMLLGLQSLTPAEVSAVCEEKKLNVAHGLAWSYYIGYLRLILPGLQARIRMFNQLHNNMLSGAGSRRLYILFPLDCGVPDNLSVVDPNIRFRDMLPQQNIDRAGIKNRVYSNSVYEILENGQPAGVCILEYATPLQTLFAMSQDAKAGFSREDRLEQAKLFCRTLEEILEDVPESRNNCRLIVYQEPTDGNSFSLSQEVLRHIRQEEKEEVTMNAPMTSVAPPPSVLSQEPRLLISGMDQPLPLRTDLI
Method: As expected, RAW264.7 cells treated with 1.8 µM diABZI c3 increased IFN-β secretion, resulting in a media concentration of around 1000 pg/mL. In contrast, cells treated with 1.8 µM diABZI c3 and 0.05 µM Example compounds 14, 16 or 24 reduced this expression to approximately 500 pg/mL.

T2 sequence (Q86WV6 whole entry, the tested form may be a part): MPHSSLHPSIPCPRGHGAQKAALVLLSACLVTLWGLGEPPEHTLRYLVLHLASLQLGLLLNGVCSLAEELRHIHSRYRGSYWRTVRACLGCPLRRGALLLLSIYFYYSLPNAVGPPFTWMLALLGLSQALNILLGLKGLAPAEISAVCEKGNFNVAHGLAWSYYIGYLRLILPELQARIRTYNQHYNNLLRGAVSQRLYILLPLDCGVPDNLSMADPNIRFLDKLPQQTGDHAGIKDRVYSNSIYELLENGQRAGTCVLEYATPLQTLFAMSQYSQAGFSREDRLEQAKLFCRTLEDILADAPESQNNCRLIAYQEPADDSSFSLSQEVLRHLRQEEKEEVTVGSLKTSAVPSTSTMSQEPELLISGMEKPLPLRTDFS

SMILES	IC50 [1] [nM]	IC50 [2] [nM]	phosphorylation of STING, IRF3 and TBK1 (STING [3])	STING phosphorylation (pSTING) (STING [4])	CXCL10 media concentration (STING [5]; cells treated with diABZI c3 alone (0.3 µM))	IFN media concentration (STING [5]; cells treated with only diABZI c3 (0.3 µM), tris(hydrochloride))	IFN-β media concentration (STING [6])
CCOC(=O)COC(CCn1c(=NC(=O)c2cc(C)nn2CC)n(C)c2cc(C(N)=O)ccc21)CCn1c(=NC(=O)c2cc(C)nn2CC)n(C)c2cc(C(N)=O)ccc21 (stereo not shown) [Building Block G-2, Ethyl (3-{5-carbamoyl-2-[(1-ethyl-3-methyl-5-pyrazolyl)carbonylimino]-3-methyl-2,3-dihydro-1H-1,3-benzimidazol-1-yl}-1-(2-{5-carbamoyl-2-[(1-ethyl-3-methyl-5-pyrazolyl)carbonylimino]-3-methyl-2,3-dihydro-1H-1,3-benzimidazol-1-yl}ethyl)propoxy)acetate]	0.452	< 30					
CCn1nc(C)cc1C(=O)Nc1nc2cc(C(N)=O)cc(OC)c2n1C/C=C/Cn1c(NC(=O)c2cc(C)nn2CC)nc2cc(C(N)=O)cc(OCCCN3CCOCC3)c21.Cl.Cl.Cl [diABZI c3, (E)-1-(4-(5-carbamoyl-2-(1-ethyl-3-methyl-1H-pyrazole-5-carboxamido)-7-(3-morpholinopropoxy)-1H-benzo[d]imidazol-1-yl)but-2-en-1-yl)-2-(1-ethyl-3-methyl-1H-pyrazole-5-carboxamido)-7-methoxy-1H-benzimidazole-5-carboxamide tris(hydrochloride), reference compound]			STING was phosphorylated and activated as were the downstream STING effectors IRF3 and TBK1	STING was phosphorylated	~ 60 pg/mL	~ 200 U/mL and ~ 100 U/mL	around 1000 pg/mL
